Measured values as given in patent US20250313548A1 (Actio Biosciences, Inc., priority 2023, published 2025).

Biological target: human, KCNT1 (Homo sapiens (Human), UniProt Q5JUK3)
Assay: FLIPR Tl/K Flux Assay
Format: cell-based
Settings: HEK293 cells stably expressing human KCNT1; Tl+ flux stimulated with EC80 of agonist Loxapine
Summary of the method: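 Inhibition values come from a Hill-equation fit of % inhibition versus log concentration, using normalized fluorescence (Fmax/Fmin) over a 160 s read. The read followed stimulation with Tl+ plus EC80 agonist loxapine after 30 min compound pre-incubation at 25 °C. Cells were KCNT1-expressing HEK293, dye-loaded 1 h in pH 7.4 HEPES/HBSS with 5 mM probenecid.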

human, KCNT1, sequence (Q5JUK3 whole entry): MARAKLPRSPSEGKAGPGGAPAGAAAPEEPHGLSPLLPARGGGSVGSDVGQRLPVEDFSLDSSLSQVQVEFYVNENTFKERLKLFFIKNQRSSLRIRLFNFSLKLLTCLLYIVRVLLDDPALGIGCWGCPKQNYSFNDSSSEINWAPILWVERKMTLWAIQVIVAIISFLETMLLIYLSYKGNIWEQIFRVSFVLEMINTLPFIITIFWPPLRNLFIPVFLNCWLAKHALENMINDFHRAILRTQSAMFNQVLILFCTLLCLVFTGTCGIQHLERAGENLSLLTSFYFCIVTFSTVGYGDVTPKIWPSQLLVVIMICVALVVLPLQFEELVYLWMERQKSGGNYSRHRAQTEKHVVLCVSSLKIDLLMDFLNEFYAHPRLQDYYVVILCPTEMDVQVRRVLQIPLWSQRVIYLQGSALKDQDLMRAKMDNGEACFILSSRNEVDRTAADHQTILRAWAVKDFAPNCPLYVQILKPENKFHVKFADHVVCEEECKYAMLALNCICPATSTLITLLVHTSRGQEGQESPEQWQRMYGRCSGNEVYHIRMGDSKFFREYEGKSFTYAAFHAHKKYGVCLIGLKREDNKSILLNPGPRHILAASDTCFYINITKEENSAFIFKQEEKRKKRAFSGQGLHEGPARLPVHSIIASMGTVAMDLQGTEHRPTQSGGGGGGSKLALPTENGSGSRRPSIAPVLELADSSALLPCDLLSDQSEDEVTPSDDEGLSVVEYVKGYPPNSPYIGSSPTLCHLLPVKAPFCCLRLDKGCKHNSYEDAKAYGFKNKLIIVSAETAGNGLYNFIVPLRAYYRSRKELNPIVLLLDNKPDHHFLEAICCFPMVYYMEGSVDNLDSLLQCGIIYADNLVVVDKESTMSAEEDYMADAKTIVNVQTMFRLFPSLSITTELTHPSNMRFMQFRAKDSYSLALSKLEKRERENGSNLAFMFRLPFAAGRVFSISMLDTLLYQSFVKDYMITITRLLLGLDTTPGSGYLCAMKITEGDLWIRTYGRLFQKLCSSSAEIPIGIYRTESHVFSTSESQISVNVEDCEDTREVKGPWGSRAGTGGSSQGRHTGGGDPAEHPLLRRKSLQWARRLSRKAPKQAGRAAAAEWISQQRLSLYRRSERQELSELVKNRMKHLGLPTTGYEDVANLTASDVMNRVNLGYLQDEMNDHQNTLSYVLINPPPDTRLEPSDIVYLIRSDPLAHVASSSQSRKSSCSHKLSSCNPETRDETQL

| IC50 [nM] | SMILES |
| --- | --- |
| > 1000 | Cn1nc(C(F)(F)F)cc1C(=O)N[C@H]1CC(C)(C)Cn2nc(-c3ccnc(C(F)(F)F)c3)cc21 [Compound I-219a, (S)—N-(6,6-Dimethyl-2-(2-(trifluoromethyl)pyridin-4-yl)-4,5,6,7-tetrahydropyrazolo[1,5-a]pyridin-4-yl)-1-methyl-3-(trifluoromethyl)-1H-pyrazole-5-carboxamide] |
| 250 to 500 | CC1(C)C[C@H](NC(=O)c2cccc(C#N)c2)c2cc(-c3ccnc(C(F)(F)F)c3)nn2C1 [Compound I-220a, (S)-3-Cyano-N-(6,6-dimethyl-2-(2-(trifluoromethyl)pyridin-4-yl)-4,5,6,7-tetrahydropyrazolo[1,5-a]pyridin-4-yl)benzamide] |
| < 250 | Cc1nc(C(=O)N[C@H]2CCn3nc(-c4ccnc(C(F)(F)F)c4)cc32)n(C)n1 [Compound I-221a, (S)-1,3-Dimethyl-N-(2-(2-(trifluoromethyl)pyridin-4-yl)-5,6-dihydro-4H-pyrrolo[1,2-b]pyrazol-4-yl)-1H-1,2,4-triazole-5-carboxamide] |
| < 250 | COc1cc(-c2cc3n(n2)CCC[C@@H]3NC(=O)c2cccc(C#N)c2)c(C)cn1 [Compound I-222a, (S)-3-Cyano-N-(2-(2-methoxy-5-methylpyridin-4-yl)-4,5,6,7-tetrahydropyrazolo[1,5-a]pyridin-4-yl)benzamide] |
| < 250 | Cn1nc(C2CC2)nc1C(=O)N[C@H]1CCCc2oc(-c3ccnc(C4CC4)c3)nc21 [Compound I-223a, (S)-3-Cyclopropyl-N-(2-(2-cyclopropylpyridin-4-yl)-4,5,6,7-tetrahydrobenzo[d]oxazol-4-yl)-1-methyl-1H-1,2,4-triazole-5-carboxamide] |
| < 250 | Cn1nc(C2CC2)nc1C(=O)N[C@H]1CCn2nc(-c3ccnc(C(F)(F)F)c3)cc21 [Compound I-224a, (S)-3-Cyclopropyl-1-methyl-N-(2-(2-(trifluoromethyl)pyridin-4-yl)-5,6-dihydro-4H-pyrrolo[1,2-b]pyrazol-4-yl)-1H-1,2,4-triazole-5-carboxamide] |
| > 1000 | Cn1ncnc1C(=O)N[C@H]1CCn2nc(-c3ccnc(C(F)(F)F)c3)cc21 [Compound I-225a] |
| < 250 | O=C(N[C@H]1CCn2nc(-c3ccnc(C(F)(F)F)c3)cc21)c1ccnc(OC(F)F)c1 [Compound I-226a, (S)-2-(Difluoromethoxy)-N-(2-(2-(trifluoromethyl)pyridin-4-yl)-5,6-dihydro-4H-pyrrolo[1,2-b]pyrazol-4-yl)isonicotinamide] |
| > 1000 | Cc1nc(C(=O)N[C@H]2CCCc3oc(-c4ccnc(C5CC5)c4)nc32)n(C)n1 [Compound I-227a, (S)-N-(2-(2-Cyclopropylpyridin-4-yl)-4,5,6,7-tetrahydrobenzo[d]oxazol-4-yl)-1,3-dimethyl-1H-1,2,4-triazole-5-carboxamide] |
| > 1000 | Cn1ncnc1C(=O)N[C@H]1CCCc2oc(-c3ccnc(C4CC4)c3)nc21 [Compound I-228a, (S)-N-(2-(2-Cyclopropylpyridin-4-yl)-4,5,6,7-tetrahydrobenzo[d]oxazol-4-yl)-1-methyl-1H-1,2,4-triazole-5-carboxamide] |
| < 250 | Cn1nc(C(F)(F)F)nc1C(=O)N[C@H]1CCCc2oc(-c3ccnc(C4CC4)c3)nc21 [Compound I-229a, (S)-N-(2-(2-Cyclopropylpyridin-4-yl)-4,5,6,7-tetrahydrobenzo[d]oxazol-4-yl)-1-methyl-3-(trifluoromethyl)-1H-1,2,4-triazole-5-carboxamide] |
| > 1000 | COc1cc(-c2cc3n(n2)CC[C@@H]3NC(=O)c2nc(C)nn2C)ccn1 [Compound I-230a, (S)-N-(2-(2-Methoxypyridin-4-yl)-5,6-dihydro-4H-pyrrolo[1,2-b]pyrazol-4-yl)-1,3-dimethyl-1H-1,2,4-triazole-5-carboxamide] |
| < 250 | O=C(N[C@H]1CCCc2oc(-c3ccnc(C4CC4)c3)nc21)c1cncc(C(F)(F)F)n1 [Compound I-231a] |
| < 250 | N#Cc1cccc(C(=O)N[C@H]2CCCc3oc(-c4ccnc(C5CC5)c4)nc32)c1 [Compound I-232a, (S)-3-Cyano-N-(2-(2-cyclopropylpyridin-4-yl)-4,5,6,7-tetrahydrobenzo[d]oxazol-4-yl)benzamide] |
| < 250 | Cn1nc(C(F)(F)F)cc1C(=O)N[C@H]1CCn2nc(-c3ccnc(OC(F)F)c3)cc21 [Compound I-233a, (S)-N-(2-(2-(Difluoromethoxy)pyridin-4-yl)-5,6-dihydro-4H-pyrrolo[1,2-b]pyrazol-4-yl)-1-methyl-3-(trifluoromethyl)-1H-pyrazole-5-carboxamide] |
| < 250 | O=C(N[C@H]1CCCn2nc(-c3ccnc(C(F)(F)F)c3)nc21)c1cc(F)cc(F)c1 [Compound I-234a, (S)-3,5-Difluoro-N-(2-(2-(trifluoromethyl)pyridin-4-yl)-5,6,7,8-tetrahydro-[1,2,4]triazolo[1,5-a]pyridin-8-yl)benzamide] |

| IC50 [nM] | SMILES |
| --- | --- |
| < 250 | Cc1cnc(C(F)(F)F)cc1-n1cc2c(n1)CC[C@@H]2NC(=O)c1cccc(C#N)c1 [Compound I-235a, (S)-3-Cyano-N-(2-(5-methyl-2-(trifluoromethyl)pyridin-4-yl)-2,4,5,6-tetrahydrocyclopenta[c]pyrazol-4-yl)benzamide] |
| < 250 | Cc1cnc(C(F)(F)F)cc1-c1cc2n(n1)CC[C@@H]2NC(=O)c1cc(C(F)(F)F)nn1C [Compound I-236a, (S)-1-Methyl-N-(2-(5-methyl-2-(trifluoromethyl)pyridin-4-yl)-5,6-dihydro-4H-pyrrolo[1,2-b]pyrazol-4-yl)-3-(trifluoromethyl)-1H-pyrazole-5-carboxamide] |
| < 250 | COc1cc(-c2cc3n(n2)CC[C@@H]3NC(=O)c2nc(C(F)(F)F)nn2C)ccn1 [Compound I-237a, (S)-N-(2-(2-Methoxypyridin-4-yl)-5,6-dihydro-4H-pyrrolo[1,2-b]pyrazol-4-yl)-1-methyl-3-(trifluoromethyl)-1H-1,2,4-triazole-5-carboxamide] |
| < 250 | O=C(N[C@H]1CCCc2oc(-c3ccnc(C4CC4)c3)nc21)c1cccc(C(F)(F)F)c1 [Compound I-238a, (S)-N-(2-(2-Cyclopropylpyridin-4-yl)-4,5,6,7-tetrahydrobenzo[d]oxazol-4-yl)-3-(trifluoromethyl)benzamide] |
| < 250 | COc1cc(-c2cc3n(n2)CCC[C@@H]3NC(=O)c2cccc(C#N)c2)c(Cl)cn1 [Compound I-239a, (S)-N-(2-(5-Chloro-2-methoxypyridin-4-yl)-4,5,6,7-tetrahydropyrazolo[1,5-a]pyridin-4-yl)-3-cyanobenzamide] |
| < 250 | COc1cc(-c2cc3n(n2)CC[C@@H]3NC(=O)c2cn(C(F)(F)F)nc2C)ccn1 [Compound I-240a, (S)-N-(2-(2-Methoxypyridin-4-yl)-5,6-dihydro-4H-pyrrolo[1,2-b]pyrazol-4-yl)-3-methyl-1-(trifluoromethyl)-1H-pyrazole-4-carboxamide] |
| < 250 | Cn1nc(C(F)(F)F)nc1C(=O)N[C@H]1CCCc2oc(-c3ccnc(C(F)(F)F)c3)nc21 [Compound I-241a, (S)-1-Methyl-3-(trifluoromethyl)-N-(2-(2-(trifluoromethyl)pyridin-4-yl)-4,5,6,7-tetrahydrobenzo[d]oxazol-4-yl)-1H-1,2,4-triazole-5-carboxamide] |
| < 250 | Cc1cc(C(=O)N[C@H]2CCCc3oc(-c4ccnc(C5CC5)c4)nc32)cc(C(F)(F)F)c1 [Compound I-242a, (S)-N-(2-(2-Cyclopropylpyridin-4-yl)-4,5,6,7-tetrahydrobenzo[d]oxazol-4-yl)-3-methyl-5-(trifluoromethyl)benzamide] |
| < 250 | COc1cc(-c2cc3n(n2)CC[C@@H]3NC(=O)c2cc(C(F)(F)F)nn2C)c(F)cn1 [Compound I-243a, (S)-N-(2-(5-Fluoro-2-methoxypyridin-4-yl)-5,6-dihydro-4H-pyrrolo[1,2-b]pyrazol-4-yl)-1-methyl-3-(trifluoromethyl)-1H-pyrazole-5-carboxamide] |
| < 250 | CCc1cc(C#N)cc(C(=O)N[C@H]2CCCCn3nc(-c4ccnc(C(F)(F)F)c4)cc32)c1 [Compound I-244a, (S)-3-Cyano-5-ethyl-N-(2-(2-(trifluoromethyl)pyridin-4-yl)-5,6,7,8-tetrahydro-4H-pyrazolo[1,5-a]azepin-4-yl)benzamide] |
| < 250 | CCc1cc(C#N)cc(C(=O)N[C@H]2CCCn3nc(-c4ccnc(C(F)(F)F)c4)cc32)c1 [Compound I-245a, (S)-3-Cyano-5-ethyl-N-(2-(2-(trifluoromethyl)pyridin-4-yl)-4,5,6,7-tetrahydropyrazolo[1,5-a]pyridin-4-yl)benzamide] |
| < 250 | CCc1cc(C#N)cc(C(=O)N[C@H]2CCc3nn(-c4ccnc(C(F)(F)F)c4)cc32)c1 [Compound I-246a, (S)-3-Cyano-5-ethyl-N-(2-(2-(trifluoromethyl)pyridin-4-yl)-2,4,5,6-tetrahydrocyclopenta[c]pyrazol-4-yl)benzamide] |
| > 1000 | Cn1nc(C(F)(F)F)cc1C(=O)N[C@H]1CCCc2c1nc(-c1ccnc(C(F)(F)F)c1)n2C [Compound I-247a, (S)-1-Methyl-N-(1-methyl-2-(2-(trifluoromethyl)pyridin-4-yl)-4,5,6,7-tetrahydro-1H-benzo[d]imidazol-4-yl)-3-(trifluoromethyl)-1H-pyrazole-5-carboxamide] |
| < 250 | COc1cc(-c2nc3c(o2)CCC[C@@H]3NC(=O)c2cc(C)cc(C(F)(F)F)c2)ccn1 [Compound I-248a] |
| < 250 | COc1cc(-c2nc3c(o2)CCC[C@@H]3NC(=O)c2cccc(C(F)(F)F)c2)ccn1 [Compound I-249a, (S)-N-(2-(2-Methoxypyridin-4-yl)-4,5,6,7-tetrahydrobenzo[d]oxazol-4-yl)-3-(trifluoromethyl)benzamide] |
| < 250 | Cc1cc(C(=O)N[C@H]2CCCc3oc(-c4ccnc(C(F)(F)F)c4)nc32)cc(C(F)(F)F)c1 [Compound I-250a, (S)-3-Methyl-5-(trifluoromethyl)-N-(2-(2-(trifluoromethyl)pyridin-4-yl)-4,5,6,7-tetrahydrobenzo[d]oxazol-4-yl)benzamide] |
